Results as given in patent US20220062340A1, “IMMUNOTHERAPEUTIC METHODS AND COMPOSITIONS” (KING'S COLLEGE LONDON, priority 2018, published 2022).

Assays:
RAR γ = molecular target: T1, RAR γ (Homo sapiens, UniProt P13631); assay: Selectivity profile against human RARs (RARγ); type: biochemical
T1 sequence (P13631 1-454): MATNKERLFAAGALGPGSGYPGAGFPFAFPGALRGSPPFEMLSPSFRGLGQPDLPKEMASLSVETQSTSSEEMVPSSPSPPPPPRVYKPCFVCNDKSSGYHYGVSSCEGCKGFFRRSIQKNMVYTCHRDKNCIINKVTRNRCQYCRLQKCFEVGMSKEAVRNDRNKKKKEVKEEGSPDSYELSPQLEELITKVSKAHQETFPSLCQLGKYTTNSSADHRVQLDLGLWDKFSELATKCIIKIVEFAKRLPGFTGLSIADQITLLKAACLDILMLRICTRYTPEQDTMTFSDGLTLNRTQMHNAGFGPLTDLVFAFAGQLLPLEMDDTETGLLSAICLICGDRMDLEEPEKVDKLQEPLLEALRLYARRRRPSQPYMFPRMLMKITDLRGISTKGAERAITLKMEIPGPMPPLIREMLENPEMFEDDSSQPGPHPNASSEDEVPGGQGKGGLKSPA

integrin β7 on Tregs = assay: Dose response of integrin β7 induction on expanded Tregs; type: cell-based; conditions: Homo sapiens; Tregs in in vitro culture, FIG. 2c; read-out: EC50 to induce the expression of integrin β7
Method: (§1) FACS-sorted Treg populations were plated at 1×10^6 or 0.5×10^6 in X-VIVO-15 medium and activated with anti-CD3/anti-CD28 coated beads (Dynabeads®, Invitrogen, Paisley, UK) at 1:1 bead: cell ratio. Rapamycin was added at day 0 of culture at a final concentration of 100 nM/L +/−ATRA 1 nM/L or RAR568 1 nM/L. Next, 1,000 IU/ml recombinant human IL-2 (rhlL-2) (Proleukin®, Novartis, Camberley, UK) was added at day 5 of culture. Cells were re-stimulated every 10-12 days and expanded for a total of 24-30 days. The phenotype and suppressive ability were assessed at the end of the culture period.
(§2) Flow cytometry panels have been designed to assess the subtypes of regulatory T cells in patients with CD as well as their expression of gut homing molecules. Gating was performed based on natural populations when assessing for CD4^+CD25^highCD127low populations, as well as for CD45RA^+ Treg populations. Additionally, to minimize bias in the assessment of expression of gut homing markers and transcription factors, a fluorochrome minus one (FMO) panel was added for each marker of interest in each experiment that was performed.

FOXP3 in Tregs = assay: FOXP3 expression of ex vivo expanded Tregs; type: cell-based, human; conditions: Tregs expanded in the presence of the agonist
Method: as §1, §2

Ex vivo expanded Tregs = assay: IL-17 and IFNγ production under pro-inflammatory cytokine challenge (ELISA); type: cell-based, human; conditions: Tregs expanded ex vivo in the presence of the agonist, FIG. 2f
Method: Cytokine concentrations were measured using the Ready-SET-Go sandwich ELISA kits from eBioscience.
Ex vivo expanded Tregs were activated with CD3/CD28 beads at a 1:20 ratio and cultured at 10^6cells/m1 in X-VIVO for 5 days at 37° C./5% CO2, supplemented with the following cytokine cocktail: A) IL-2 (10 IU/mL, Proleukin); (B) IL-2, IL-1 (10 ng/mL), IL-6 (4 ng/mL) and transforming growth factor-β (TGF-β (5 ng/mL), IL-21 (25 ng/mL), IL-23 (25 ng/mL) (all R&D Systems). Supernatant IL-17 and interferon gamma (IFNγ) concentrations were measured by ELISA.

MAdCAM-1 = assay: In-vitro trafficking assay, MAdCAM-1 coated Ibidi flow chamber; type: cell-based, human; conditions: agonist-treated Tregs from CD patients compared to cells expanded under standard conditions
Method: Ibidi (Martinsreid, Germany) μ-Slides VI″ were coated with recombinant human MAdCAM-1 (R&D Systems, Minneapolis, Minn.), at a concentration of 10μg/ml and incubated overnight. Cells from two CD patients that had previously undergone ex vivo expansion under two parallel conditions (Rapa and Rapa+RAR568) and had been frozen in liquid nitrogen were defrosted and rested overnight. Rested cells were then activated with rhCCL25 (R&D systems) and passed through the coated Ibidi flow chamber at a rate of 1 dyne/cm^2. The total number of cells, as well as those rolling, adherent and crawling was quantified from six randomly selected fields of view per treatment.
In order to assess the physiological relevance of the induction of α4β7 expression by RAR568, treated and untreated Tregs from CD patients were passed through a MAdCAM-1 coated flow chamber (FIG. 10). The total number of cells adherent to the chamber, as well as their stages of rolling, adhesion and crawling, were compared to cells that were expanded under standard conditions.

[1] = system: integrin α4β7 on Treg surface; assay: Induction of integrin α4β7 on bulk Treg surface by RARα agonists (FIG. 6); type: cell-based; conditions: bulk CD4+CD25+CD127− Tregs, 12 days stimulation, reducing agonist concentrations
Method: Bulk Tregs (CD4+CD25+CD127−) Tregs (50,000 per well) were expanded in vitro with reducing concentrations of the agonists. Culture conditions: 2 aCD3/aCD28 beads/cell, 1000IU/mL IL-2, 0.1 nM Rapamycin+Agonist in X-vivo 15. Following 12 days stimulation, cells were stained for CD4, CD25, CD127, FOXP3, Integrin a4, Integrin b7, CD15s, CD161 and acquired on a BD symphony flow cytometer. Data was analysed in Flowjo and Prism.

CCOc1c(Cl)cc(C(=O)Nc2ccc(C(=O)O)c(C)c2)cc1OC(C)C [RAR568]
selectivity over RAR γ (RAR γ): > 13,000 fold
EC50 (integrin β7 on Tregs): 0.01 nM
FOXP3 expression of expanded Tregs (FOXP3 in Tregs; mean ± SD): 96.99% ±3.51
FOXP3 expression, range (FOXP3 in Tregs; range): 91.5-99.8
IFNγ production following pro-inflammatory cytokine challenge (Ex vivo expanded Tregs): did not produce
IL-17 production following pro-inflammatory cytokine challenge (Ex vivo expanded Tregs): did not produce
total cells and cells rolling, adherent and crawling in MAdCAM-1 coated flow chamber (MAdCAM-1): significantly more total cells as well as cells at each condition of migration
induction of integrin α4β7 on Treg surface [1]: comparable effects
